Data on 3 compounds can be found in EP0050253A1, “Antibiotic pharmaceutical composition” (priority 1980, dated 1982).

Each structure is given as a SMILES string.

The subject of one assay is Escherichia coli R^+TEM. Put plainly: Agar dilution checkerboard growth test (Caseinpepton-Fleischextrakt-Bouillon-Agar, ~3x10^4 CFU/ml, 18 h, 37 °C). Type of assay: cell-based. Here is the method: (§1) Ein Caseinpepton-Fleischextrakt-Bouillon-Agar mit einem Gehalt der angegebenen Menge der nachstehend angegebenen Substanzen A und B wird mit dem Testbakterium geimpft (~3x10^4CFU/ml). Nach der Inkubation während 18 Stunden bei 37 °C wird der Wuchszustand der Testbakterien untersucht. Die Ergebnisse sind in den Tabellen zusammengestellt. In jeder Tabelle bedeutet (+), daß das Testbakterium wächst, und (-) bedeutet, daß das Testbakterium nicht wächst. Man erkennt aus diesen Tabellen, daß die Kombination von D-α-[3-(2-p-Aminosulfonylanilino-4-hydroxy-5-pyrimidinyl)-ureido]-p-hydroxy-benzylpenicillin-Natrium = A bzw.

In a further assay the test system is Kl. pneumoniae 1082 E. The assay is described as above. In kind it is cell-based. Here is the method: as §1

Regarding `O=C(O)[C@H]1/C(=C/CO)O[C@@H]2CC(=O)N21` [Substanz C, Lithium-Z-(2R,5R)-3-(ß-hydroxyäthyliden)-7-oxo-4-oxa-1-aza-bicyclo[3,2,0]-heptan-2-carboxylat, reference compound], the “Wuchszustand der Testbakterien” value was “+” in the assay with Escherichia coli R^+TEM (C 0,5 µg/ml, B 0 µg/ml); “+” in the assay with Escherichia coli R^+TEM (C 0,25 µg/ml, B 0 µg/ml); “+” with Escherichia coli R^+TEM (C 1 µg/ml, A 0 µg/ml); “+” in the assay on Escherichia coli R^+TEM (C 1 µg/ml, B 0 µg/ml); “+” with Escherichia coli R^+TEM (C 2 µg/ml, A 0 µg/ml); “+” in the assay on Escherichia coli R^+TEM (C 2 µg/ml, B 0 µg/ml). Moreover, the “Wuchszustand der Testbakterien” value is reported as “+” in the assay on Escherichia coli R^+TEM (C 4 µg/ml, A 0 µg/ml); “+” in the assay with Escherichia coli R^+TEM (C 4 µg/ml, B 0 µg/ml); “+” in the assay on Escherichia coli R^+TEM (C 8 µg/ml, A 0 µg/ml); “+” in the assay on Escherichia coli R^+TEM (C 8 µg/ml, B 0 µg/ml); “+” in the assay with Escherichia coli R^+TEM (C 16 µg/ml, A 0 µg/ml); “+” in the assay on Escherichia coli R^+TEM (C 16 µg/ml, B 0 µg/ml). Besides, the “Wuchszustand der Testbakterien” value is on record as “-” in the assay on Escherichia coli R^+TEM (C 32 µg/ml, A 0 µg/ml); “-” in the assay on Escherichia coli R^+TEM (C 32 µg/ml, B 0 µg/ml); “+” in the assay on Kl. pneumoniae 1082 E (C 1 µg/ml, A 0 µg/ml); “+” in the assay with Kl. pneumoniae 1082 E (C 1 µg/ml, B 0 µg/ml); “+” in the assay on Kl. pneumoniae 1082 E (C 2 µg/ml, A 0 µg/ml); “+” in the assay with Kl. pneumoniae 1082 E (C 2 µg/ml, B 0 µg/ml). The “Wuchszustand der Testbakterien” value was “+” with Kl. pneumoniae 1082 E (C 4 µg/ml, A 0 µg/ml); “+” with Kl. pneumoniae 1082 E (C 4 µg/ml, B 0 µg/ml); “+” in the assay on Kl. pneumoniae 1082 E (C 8 µg/ml, A 0 µg/ml); “+” in the assay with Kl. pneumoniae 1082 E (C 8 µg/ml, B 0 µg/ml); “+” with Kl. pneumoniae 1082 E (C 16 µg/ml, A 0 µg/ml); “+” with Kl. pneumoniae 1082 E (C 16 µg/ml, B 0 µg/ml). For the same compound, the “Wuchszustand der Testbakterien” value in the assay on Kl. pneumoniae 1082 E (C 32 µg/ml, A 0 µg/ml) was “+”; in the assay with Kl. pneumoniae 1082 E (C 32 µg/ml, B 0 µg/ml) it was “+”; in the assay with Kl. pneumoniae 1082 E (C 64 µg/ml, A 0 µg/ml), “-”; with Kl. pneumoniae 1082 E (C 64 µg/ml, B 0 µg/ml), “-”.

As for `CC1(C)S[C@@H]2[C@H](NC(=O)[C@H](NC(=O)Nc3cnc(Nc4ccc(S(N)(=O)=O)cc4)nc3O)c3ccc(O)cc3)C(=O)N2[C@H]1C(=O)O` [Substanz A, D-α-[3-(2-p-Aminosulfonylanilino-4-hydroxy-5-pyrimidinyl)-ureido]-p-hydroxy-benzylpenicillin-Natrium], the “Wuchszustand der Testbakterien” value in the assay on Escherichia coli R^+TEM (C 0 µg/ml, A 0,5 µg/ml) was “+”; in the assay on Escherichia coli R^+TEM (C 0 µg/ml, A 1 µg/ml) it was “+”; in the assay with Escherichia coli R^+TEM (C 0 µg/ml, A 2 µg/ml), “+”; in the assay on Escherichia coli R^+TEM (C 0 µg/ml, A 4 µg/ml), “+”; in the assay with Escherichia coli R^+TEM (C 0 µg/ml, A 8 µg/ml), “+”; with Escherichia coli R^+TEM (C 0 µg/ml, A 16 µg/ml), “+”. Further, the “Wuchszustand der Testbakterien” value is “+” with Escherichia coli R^+TEM (C 0 µg/ml, A 32 µg/ml); “+” with Escherichia coli R^+TEM (C 0 µg/ml, A 64 µg/ml); “+” in the assay with Escherichia coli R^+TEM (C 0 µg/ml, A 128 µg/ml); “+” with Kl. pneumoniae 1082 E (C 0 µg/ml, A 0,5 µg/ml); “+” in the assay with Kl. pneumoniae 1082 E (C 0 µg/ml, A 0,25 µg/ml); “+” with Kl. pneumoniae 1082 E (C 0 µg/ml, A 1 µg/ml). In addition, the “Wuchszustand der Testbakterien” value in the assay on Kl. pneumoniae 1082 E (C 0 µg/ml, A 2 µg/ml) is reported as “+”; with Kl. pneumoniae 1082 E (C 0 µg/ml, A 4 µg/ml), “+”; with Kl. pneumoniae 1082 E (C 0 µg/ml, A 8 µg/ml), “+”; in the assay with Kl. pneumoniae 1082 E (C 0 µg/ml, A 16 µg/ml), “+”; with Kl. pneumoniae 1082 E (C 0 µg/ml, A 32 µg/ml), “+”; in the assay with Kl. pneumoniae 1082 E (C 0 µg/ml, A 64 µg/ml), “+”.

Take `Cn1nnnc1SCC1=C(C(=O)O)N2C(=O)[C@@H](NC(=O)[C@H](NC(=O)Nc3cnc(Nc4ccc(S(N)(=O)=O)cc4)nc3O)c3ccc(O)cc3)[C@H]2SC1` [Substanz B]: the “Wuchszustand der Testbakterien” value with Escherichia coli R^+TEM (C 0 µg/ml, B 0,5 µg/ml) is “+”; with Escherichia coli R^+TEM (C 0 µg/ml, B 0,06 µg/ml) it was “+”; in the assay on Escherichia coli R^+TEM (C 0 µg/ml, B 0,25 µg/ml), “+”; in the assay with Escherichia coli R^+TEM (C 0 µg/ml, B 1 µg/ml) it was “+”; in the assay on Escherichia coli R^+TEM (C 0 µg/ml, B 2 µg/ml), “+”; with Escherichia coli R^+TEM (C 0 µg/ml, B 4 µg/ml), “+”. Further, the “Wuchszustand der Testbakterien” value in the assay on Escherichia coli R^+TEM (C 0 µg/ml, B 8 µg/ml) is reported as “-”; in the assay with Escherichia coli R^+TEM (C 0 µg/ml, B 0,125 µg/ml), “+”; with Kl. pneumoniae 1082 E (C 0 µg/ml, B 0,5 µg/ml), “+”; in the assay with Kl. pneumoniae 1082 E (C 0 µg/ml, B 0,25 µg/ml), “+”; in the assay on Kl. pneumoniae 1082 E (C 0 µg/ml, B 1 µg/ml) it was “+”; with Kl. pneumoniae 1082 E (C 0 µg/ml, B 2 µg/ml), “+”. For the same compound, the “Wuchszustand der Testbakterien” value with Kl. pneumoniae 1082 E (C 0 µg/ml, B 4 µg/ml) was “+”; in the assay on Kl. pneumoniae 1082 E (C 0 µg/ml, B 8 µg/ml), “+”; with Kl. pneumoniae 1082 E (C 0 µg/ml, B 16 µg/ml) it was “+”; in the assay with Kl. pneumoniae 1082 E (C 0 µg/ml, B 32 µg/ml), “+”; in the assay on Kl. pneumoniae 1082 E (C 0 µg/ml, B 64 µg/ml) it was “+”.
